From PubChem BioAssay (NCI) come the findings set out here.

Some test systems named below: SNB-75 CNS; ACHN renal; COLO 205 colon; EKVX NSCLC; SK-MEL-28 melanoma; HT29 colon; KM12 colon; U251 CNS; UO-31 renal.
What all share (assay): NCI-60 cell line screen, 48 h

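These data come from cells grown in 96-well plates and exposed to compound for 48 hours at five concentrations. TGI denotes the concentration required for complete inhibition of growth.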 Where only a bound is given, the exact number is not on record here.

`COc1ccc2oc(-c3ccc(OC)c(OC)c3OC)cc(=O)c2c1`: the TGI in the assay with SNB-75 CNS, in the assay on ACHN renal, in the assay on COLO 205 colon, in the assay on EKVX NSCLC, in the assay on SK-MEL-28 melanoma and with HT29 colon was above 100 µM each time.
As for `c1ccc(SC23C4C5C6C4C2C6C53)nc1` (stereo unspecified), the TGI with KM12 colon, in the assay with SNB-75 CNS, in the assay on ACHN renal, in the assay on COLO 205 colon, with U251 CNS and in the assay with EKVX NSCLC was above 100 µM in each case. The TGI with SK-MEL-28 melanoma, in the assay with HT29 colon and in the assay on UO-31 renal was above 100 µM in each case.
With `Cc1nc(/C=C2\C(=O)C=Cc3ccccc32)c(O)o1`, the TGI is above 100 µM in the assay with KM12 colon; 40.4 µM with SNB-75 CNS; above 100 µM in the assay with ACHN renal; above 100 µM in the assay on COLO 205 colon; above 100 µM in the assay with U251 CNS; above 100 µM in the assay on EKVX NSCLC. The TGI in the assay on SK-MEL-28 melanoma, in the assay with HT29 colon and with UO-31 renal was above 100 µM each time.
Consider `CCOc1ccc(NCC2CC/C(=C\c3ccccc3OC)C2=O)cc1` (stereo unspecified), for which the TGI in the assay with KM12 colon turned out to be 9.1 µM; in the assay with SNB-75 CNS it was 31.1 µM; with ACHN renal it was 27.8 µM; in the assay with COLO 205 colon, 5.59 µM; in the assay with U251 CNS, 27.8 µM; in the assay on EKVX NSCLC it was 31.9 µM. Moreover, the values for the TGI with SK-MEL-28 melanoma, with HT29 colon and in the assay on UO-31 renal were 24.1 µM, 7.78 µM and 26.2 µM, respectively.
Take `COC(=O)/C(C#N)=C(\N)C(Cl)(Cl)Cl`: the TGI in the assay with KM12 colon came to 15.8 µM; in the assay on SNB-75 CNS, 16 µM; with ACHN renal, 6.6 µM; in the assay with COLO 205 colon, 4.72 µM; with U251 CNS, 31.7 µM; in the assay on EKVX NSCLC, 17.8 µM. For the same compound, the TGI in the assay on SK-MEL-28 melanoma was found to be 4.66 µM; in the assay with UO-31 renal, 86.6 µM.
In the case of `Cc1cc(C)c(C(=O)O)c(SSc2cc(C)cc(C)c2C(=O)O)c1`, the TGI in the assay on KM12 colon, in the assay on ACHN renal, with COLO 205 colon, in the assay on U251 CNS, with EKVX NSCLC and in the assay on SK-MEL-28 melanoma was above 100 µM throughout. Moreover, the TGI in the assay with HT29 colon and in the assay on UO-31 renal was above 100 µM each time.
As for `C=CCC1(C(=O)OC(C)(C)C)C(OC)=C(C(=O)OC(C)(C)C)C2C1C(C(=O)OC(C)(C)C)=C(OC)C2(CC=C)C(=O)OC(C)(C)C` (stereo unspecified), the TGI with KM12 colon, in the assay on SNB-75 CNS, in the assay with ACHN renal, in the assay on COLO 205 colon, in the assay on EKVX NSCLC and in the assay with SK-MEL-28 melanoma was above 100 µM in each case. Besides, in the assay with UO-31 renal, the TGI was above 100 µM.
As to `N#CC(C#N)=Cc1ccc(CP(=O)(O)O)cc1`, the TGI in the assay with KM12 colon, in the assay with ACHN renal, in the assay with COLO 205 colon, in the assay on U251 CNS, in the assay with EKVX NSCLC and in the assay on SK-MEL-28 melanoma was above 100 µM each time. Moreover, the TGI in the assay on HT29 colon and in the assay on UO-31 renal was above 100 µM throughout.
Take `Cc1[nH]c(N)nc(=S)c1CCC(=O)O`: the TGI with KM12 colon, with ACHN renal, in the assay with COLO 205 colon, in the assay on U251 CNS, with EKVX NSCLC and with SK-MEL-28 melanoma was above 100 µM each time. In addition, the TGI in the assay on HT29 colon and in the assay on UO-31 renal was above 100 µM throughout.
As for `Cc1ccc(S(=O)(=O)C2=c3nc4ccccc4cc3=C3C(=O)c4ccccc4C(=O)C32)cc1` (stereo unspecified), the TGI in the assay on KM12 colon, with SNB-75 CNS, in the assay with ACHN renal, with COLO 205 colon, in the assay with U251 CNS and with EKVX NSCLC was above 100 µM throughout. The TGI in the assay on SK-MEL-28 melanoma and in the assay with UO-31 renal was above 100 µM in each case.
With `NCCNC(=O)c1cccc2cc3ccccc3nc12`, the TGI in the assay on KM12 colon was determined as 20.4 µM; in the assay with SNB-75 CNS it was 27.7 µM; in the assay on U251 CNS it was 9.04 µM; in the assay on EKVX NSCLC, 17.5 µM; with SK-MEL-28 melanoma, 9.71 µM; in the assay on HT29 colon, 6.5 µM. The TGI in the assay with UO-31 renal is above 28.5 µM.
For the compound `COc1cc2c(cc1OC)C1Cc3ccc(OC)c(OC)c3C[N+]1([O-])CC2` (stereo unspecified), the TGI in the assay on KM12 colon, in the assay with SNB-75 CNS, with ACHN renal, in the assay on U251 CNS, in the assay with EKVX NSCLC and with SK-MEL-28 melanoma was above 100 µM in each case. Moreover, the TGI with HT29 colon and in the assay on UO-31 renal was above 100 µM each time.
Consider `OC12c3ccccc3C1CCCCCCCCCC21OCCO1` (stereo unspecified), for which the TGI with KM12 colon, with SNB-75 CNS, with ACHN renal, with COLO 205 colon, in the assay on U251 CNS and with SK-MEL-28 melanoma was above 100 µM in each case. Further, the TGI with HT29 colon and with UO-31 renal was above 100 µM throughout.
For the compound `COc1ccc2c(c1)NC1(O)c3ccccc3C(=O)C21O` (stereo unspecified), the TGI with KM12 colon, in the assay with SNB-75 CNS, in the assay on ACHN renal, with COLO 205 colon, with U251 CNS and with SK-MEL-28 melanoma was above 100 µM throughout. The TGI with HT29 colon and in the assay on UO-31 renal was above 100 µM throughout.
